# Measured values: ChEMBL document CHEMBL1201862, “PubChem BioAssay data set” (2004)
# Active and inactive are the calls of the source.
# Tests used:
# Beta-galactosidase = Beta-galactosidase (Escherichia coli, UniProt Q8VNN2); assay: Dose response counterscreen for EBI2 assay utilizing the enzyme, b-galactosidase.; format: functional
# cells [1] = format: functional, cell-based
# [2] = molecular target: T1, Trace amine-associated receptor 1 (Homo sapiens, UniProt Q96RJ0); assay: Fluorescence-based cell-based high throughput dose response assay to identify agonists of the human trace amine associated receptor 1 (TAAR1).; format: functional
# T1 sequence (Q96RJ0 whole entry): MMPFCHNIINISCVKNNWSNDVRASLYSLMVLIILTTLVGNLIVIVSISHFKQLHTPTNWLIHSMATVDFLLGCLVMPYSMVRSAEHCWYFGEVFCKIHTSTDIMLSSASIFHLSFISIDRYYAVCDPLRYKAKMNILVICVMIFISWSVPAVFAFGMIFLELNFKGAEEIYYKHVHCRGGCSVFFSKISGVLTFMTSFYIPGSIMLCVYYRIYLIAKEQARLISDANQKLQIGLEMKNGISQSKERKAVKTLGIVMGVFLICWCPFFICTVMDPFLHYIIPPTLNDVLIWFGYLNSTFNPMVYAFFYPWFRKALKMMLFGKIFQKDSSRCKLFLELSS
# [3] = molecular target: T1, Trace amine-associated receptor 1; assay: Counterscreen for agonists of the human trace amine associated receptor 1 (hTAAR1): Fluorescence-based cell-based high throughput dose response assay to identify hTAAR1 agonist that also desensitize TAAR1 receptor response.; format: functional
# cells [4] = format: functional, cell-based; remark: listed apart in the source
# [5] = NIH-3T3 fibroblast cytotoxicity, dose response, cytotoxicity control, cell-based, fluorescence, Alamar Blue, secondary assay (AID 2327); format: functional;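 note: NIH-3T3 mouse fibroblasts cultured with fluconazole at 8 µg/mL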
# [6] = fluconazole-exposed Candida albicans growth modulators – fluorescence, retest, confirmation (AID 2467); format: functional, cell-based
# [7] = microbe, parasite or virus in culture; format: functional; details: Mycobacterium tuberculosis
# [8] = THP-1 cell cytotoxicity, dose response, cytotoxicity control for non-replicating M. tuberculosis project (AID 489025); format: functional
# [9] = Vero E6 cell cytotoxicity, dose response, cytotoxicity control for non-replicating M. tuberculosis project, secondary assay (AID 492998); format: functional, VeroE6; details: Vero C1008
# cells [10] = format: functional
# Albumin = Albumin (Bos taurus, UniProt P02769); assay: Counterscreen for inhibitors of T-cell receptor (TCR)-CD3 interaction: Fluorescence-based biochemical high throughput dose response assay to identify inhibitors of T-cell receptor (TCR)-CD3 interaction using a TAMRA-labeled BSA probe.; format: functional
# [11] = molecular target: Luciferin 4-monooxygenase (Photinus pyralis, UniProt P08659); assay: Counter Screen for Luciferase-based Assay Positives. [Related pubchem assays: 620, 618, 411 ]
# HT-1080 = assay: HT1080 cell viability loss – fluorescence readout (AID 620); format: functional, cell-based; details: Homo sapiens
# HEK293 = assay: EBV LMP1 TES2 canonical NF-kB signalling blockers – cell-based, HEK293, luciferase, cherry-pick, dose response (AID 588343); format: functional, Homo sapiens; details: Homo sapiens, HEK293
# [12] = A549 cell cytotoxicity, dose response, cytotoxicity control, plate reader, cherry-pick, antagonist series (AID 743412); format: functional, cell-based
# [13] = toxicity toward HepG2 liver cells – cell-based, plate reader, cherry-pick, antagonist series, cytotoxicity control, dose response (AID 743416); format: functional
# [14] = blockers of bursicon-stimulated LGR2 cAMP reporter – cell-based, HEK293, CRE-luciferase reporter, cherry pick, set 2, dose response (AID 743343); format: functional;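 note: transfected cells were stimulated with diluted bursicon conditioned medium after compound addition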
# [15] = blockade of melanocortin 4 receptor signaling – cell-based, plate reader, cherry pick, counter-screen for LGR2 antagonist project, dose response (AID 743444); format: functional;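 note: transfected HEK 293 cells stimulated with alpha-MSH peptide; potency of inhibitors of the alpha-MSH evoked signal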
# [16] = viability loss in HEK293 cells – cell-based, plate reader, cherry-picked samples, cytotoxicity control, dose response (AID 743446); format: functional
# [17] = molecular target: T2, Heat shock factor protein 1 (Mus musculus, UniProt P38532); assay: enhancement of HSF1-driven luciferase signal – cell-based, NIH3T3, luminescence, dose retest, confirmation (AID 435004); format: functional;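 note: stress induced by proteasome inhibitor MG132 added 30 min after compound; luciferase reporter driven by HSF1 response element in NIH3T3 cells; actives raise luminescence as potentiators of the MG132 stress response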
# T2 sequence (P38532 whole entry): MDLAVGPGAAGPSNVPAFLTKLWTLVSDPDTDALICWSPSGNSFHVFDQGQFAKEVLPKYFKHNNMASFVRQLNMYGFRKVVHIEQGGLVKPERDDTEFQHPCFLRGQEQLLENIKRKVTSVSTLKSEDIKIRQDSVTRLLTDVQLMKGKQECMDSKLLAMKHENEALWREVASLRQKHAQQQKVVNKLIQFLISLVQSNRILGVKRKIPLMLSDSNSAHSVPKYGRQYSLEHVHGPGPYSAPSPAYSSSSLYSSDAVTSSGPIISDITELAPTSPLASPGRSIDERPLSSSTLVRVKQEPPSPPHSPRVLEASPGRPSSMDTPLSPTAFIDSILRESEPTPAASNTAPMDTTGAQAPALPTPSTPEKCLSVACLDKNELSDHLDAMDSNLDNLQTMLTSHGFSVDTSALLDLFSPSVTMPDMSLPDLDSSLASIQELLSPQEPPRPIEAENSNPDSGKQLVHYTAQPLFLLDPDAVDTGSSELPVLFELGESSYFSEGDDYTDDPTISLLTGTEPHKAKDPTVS
# [18] = molecular target: T3, Methionyl-tRNA synthetase, putative (Trypanosoma brucei brucei, UniProt Q38C91); format: functional, Trypanosoma brucei brucei strain 927/4 GUTat10.1
# T3 sequence (Q38C91 whole entry): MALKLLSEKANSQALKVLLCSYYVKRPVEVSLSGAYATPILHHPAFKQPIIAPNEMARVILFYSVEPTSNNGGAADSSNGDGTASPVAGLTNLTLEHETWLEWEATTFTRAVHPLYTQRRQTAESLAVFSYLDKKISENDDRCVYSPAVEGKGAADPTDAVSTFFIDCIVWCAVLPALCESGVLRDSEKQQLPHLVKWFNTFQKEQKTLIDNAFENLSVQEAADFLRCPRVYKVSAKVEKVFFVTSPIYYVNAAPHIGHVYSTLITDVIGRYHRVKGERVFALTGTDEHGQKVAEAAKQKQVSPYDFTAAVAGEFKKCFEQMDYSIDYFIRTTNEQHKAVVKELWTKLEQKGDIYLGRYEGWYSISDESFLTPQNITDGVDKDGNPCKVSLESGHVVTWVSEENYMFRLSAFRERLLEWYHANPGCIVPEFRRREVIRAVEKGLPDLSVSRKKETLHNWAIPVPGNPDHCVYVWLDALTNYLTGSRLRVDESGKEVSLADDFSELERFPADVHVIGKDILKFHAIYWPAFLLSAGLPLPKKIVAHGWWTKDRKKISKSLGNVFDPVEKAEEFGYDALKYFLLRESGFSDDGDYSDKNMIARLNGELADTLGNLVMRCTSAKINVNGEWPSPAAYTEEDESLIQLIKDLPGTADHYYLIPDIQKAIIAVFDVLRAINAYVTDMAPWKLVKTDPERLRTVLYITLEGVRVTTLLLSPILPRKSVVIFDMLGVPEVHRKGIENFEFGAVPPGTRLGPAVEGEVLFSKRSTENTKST
# [19] = Counterscreen for inhibitors of Trypanosoma brucei methionyl tRNA synthetase (MetRS): Luminescence-based cell-based high throughput dose response assay to identify compounds that are cytotoxic to Jurkat human T lymphocyte cells.; format: functional
# [20] = molecular target: T3, Methionyl-tRNA synthetase, putative; format: functional, Trypanosoma brucei brucei strain 927/4 GUTat10.1; remark: listed apart in the source
# [21] = blockers of HIV-1 envelope-mediated cell-cell fusion – cherry-pick, dose response (AID 652057); format: functional, cell-based
# [22] = blockers of HIV-1 ZM109 envelope-driven cell-cell fusion – HeLa effector, CEM target cells, luciferase, cherry-pick, dose response (AID 652058); format: functional, cell-based;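 note: luciferase signal from HIV-1 Env mediated cell-cell fusion of effector and target cells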
# [23] = off-target signal loss in HeLa-CEM21 co-culture – HeLa F-luc CTL cells, cherry-picked, counter-screen for HIV-1 Env fusion inhibitor project, dose response (AID 652040); format: functional, cell-based;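 note: potency for signal decrease marking cytotoxic or nonspecific inhibition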
# [24] = HIV-1 AD8 envelope cell-cell fusion blockers – cherry-pick, dose response (AID 652062); format: functional, cell-based;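 note: luciferase signal from cell-cell fusion driven by HIV-1 clade B AD8 Env; potency is for inhibitors of fusion seen as a drop in luminescence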
# Vero = assay: cells; format: functional; details: Chlorocebus sabaeus
# Caspase-6 = molecular target: T4, Caspase-6 (Homo sapiens, UniProt P55212); assay: inhibition of CASP6 peptide cleavage – biochemical, VEID-R110 fluorescence, cherry-pick, dose response (AID 720632)
# T4 sequence (P55212 whole entry): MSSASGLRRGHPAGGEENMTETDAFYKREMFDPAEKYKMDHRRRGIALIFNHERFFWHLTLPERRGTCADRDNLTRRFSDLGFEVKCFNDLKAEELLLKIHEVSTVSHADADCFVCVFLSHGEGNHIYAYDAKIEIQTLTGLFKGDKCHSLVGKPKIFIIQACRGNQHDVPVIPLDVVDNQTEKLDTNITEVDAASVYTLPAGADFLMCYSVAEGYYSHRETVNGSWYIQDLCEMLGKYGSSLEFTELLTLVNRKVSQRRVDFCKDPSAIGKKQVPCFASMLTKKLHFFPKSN
# [25] = viability of uninfected HEp-2 cells – cell-based, HTS, cytotoxicity control for RSV inhibitor project, dose response (AID 2410); format: functional; details: human respiratory syncytial virus
# [26] = cytotoxicity in HEK293 background cells – cell-based, dry powder, set 2, counter-screen for EBV LMP1 inhibitor project, dose response (AID 624374); format: functional
# [27] = Cytotoxicity screening for potential Inhibitors of Bacterial Capsule Biogenesis (4).; format: functional
# [28] = system: Streptococcus sp. 'group A'; assay: Streptococcus pyogenes SK(-)GAS viability under kanamycin – luminescence, BacTiterGlo, confirmation, counter-screen for streptokinase expression inhibitor project, dose response (AID 1900); format: functional, organism-based
# Streptococcus = assay: GAS UMAA2166 growth inhibition – luminescence, BacTiterGlo, counter-screen for streptokinase expression inhibitor project, dose response (AID 1915); format: functional, organism-based;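 note: potency for reduction of bacterial viability or growth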
# Beta-galactosidase, sequence (Q8VNN2 whole entry): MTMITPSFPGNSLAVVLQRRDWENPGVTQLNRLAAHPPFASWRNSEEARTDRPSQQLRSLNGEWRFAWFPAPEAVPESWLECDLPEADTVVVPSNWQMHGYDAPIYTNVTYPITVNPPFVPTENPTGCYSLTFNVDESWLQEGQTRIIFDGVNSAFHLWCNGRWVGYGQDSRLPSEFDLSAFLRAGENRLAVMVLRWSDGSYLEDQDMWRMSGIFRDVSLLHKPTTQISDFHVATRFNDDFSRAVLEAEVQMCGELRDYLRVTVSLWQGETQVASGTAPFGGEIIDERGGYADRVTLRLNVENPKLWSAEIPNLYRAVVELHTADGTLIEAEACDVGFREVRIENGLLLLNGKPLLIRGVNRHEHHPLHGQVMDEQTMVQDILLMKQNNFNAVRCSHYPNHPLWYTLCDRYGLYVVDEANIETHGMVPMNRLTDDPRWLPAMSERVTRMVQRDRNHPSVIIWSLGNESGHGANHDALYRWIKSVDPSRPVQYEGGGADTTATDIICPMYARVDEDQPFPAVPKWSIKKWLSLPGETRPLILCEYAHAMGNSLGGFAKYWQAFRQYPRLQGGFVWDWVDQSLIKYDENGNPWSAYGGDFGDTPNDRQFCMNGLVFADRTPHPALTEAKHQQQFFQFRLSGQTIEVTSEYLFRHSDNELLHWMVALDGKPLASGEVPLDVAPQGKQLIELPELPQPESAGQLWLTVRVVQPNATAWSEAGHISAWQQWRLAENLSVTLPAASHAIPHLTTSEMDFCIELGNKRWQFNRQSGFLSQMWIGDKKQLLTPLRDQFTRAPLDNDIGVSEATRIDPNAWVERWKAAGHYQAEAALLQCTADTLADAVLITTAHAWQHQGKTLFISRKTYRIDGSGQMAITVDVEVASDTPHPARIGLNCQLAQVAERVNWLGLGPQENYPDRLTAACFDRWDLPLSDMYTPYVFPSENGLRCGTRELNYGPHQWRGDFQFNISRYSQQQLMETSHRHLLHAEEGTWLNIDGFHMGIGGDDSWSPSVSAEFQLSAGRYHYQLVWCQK
# Albumin, sequence (P02769 whole entry): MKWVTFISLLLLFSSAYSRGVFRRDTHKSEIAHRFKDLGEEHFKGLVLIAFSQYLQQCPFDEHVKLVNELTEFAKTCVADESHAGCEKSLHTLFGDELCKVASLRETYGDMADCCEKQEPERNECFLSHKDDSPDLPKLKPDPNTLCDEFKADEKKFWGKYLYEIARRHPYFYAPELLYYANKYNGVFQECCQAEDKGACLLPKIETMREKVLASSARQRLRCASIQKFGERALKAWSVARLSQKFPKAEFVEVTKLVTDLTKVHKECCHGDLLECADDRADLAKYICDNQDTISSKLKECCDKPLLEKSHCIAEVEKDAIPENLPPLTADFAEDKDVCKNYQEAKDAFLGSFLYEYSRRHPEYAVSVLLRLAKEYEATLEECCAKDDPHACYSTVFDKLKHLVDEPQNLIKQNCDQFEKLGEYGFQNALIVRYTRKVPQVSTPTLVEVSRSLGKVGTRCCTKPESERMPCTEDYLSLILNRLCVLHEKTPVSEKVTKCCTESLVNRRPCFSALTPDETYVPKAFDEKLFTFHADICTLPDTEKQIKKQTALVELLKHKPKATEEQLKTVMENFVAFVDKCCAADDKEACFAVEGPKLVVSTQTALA
# Luciferin 4-monooxygenase, sequence (P08659 whole entry): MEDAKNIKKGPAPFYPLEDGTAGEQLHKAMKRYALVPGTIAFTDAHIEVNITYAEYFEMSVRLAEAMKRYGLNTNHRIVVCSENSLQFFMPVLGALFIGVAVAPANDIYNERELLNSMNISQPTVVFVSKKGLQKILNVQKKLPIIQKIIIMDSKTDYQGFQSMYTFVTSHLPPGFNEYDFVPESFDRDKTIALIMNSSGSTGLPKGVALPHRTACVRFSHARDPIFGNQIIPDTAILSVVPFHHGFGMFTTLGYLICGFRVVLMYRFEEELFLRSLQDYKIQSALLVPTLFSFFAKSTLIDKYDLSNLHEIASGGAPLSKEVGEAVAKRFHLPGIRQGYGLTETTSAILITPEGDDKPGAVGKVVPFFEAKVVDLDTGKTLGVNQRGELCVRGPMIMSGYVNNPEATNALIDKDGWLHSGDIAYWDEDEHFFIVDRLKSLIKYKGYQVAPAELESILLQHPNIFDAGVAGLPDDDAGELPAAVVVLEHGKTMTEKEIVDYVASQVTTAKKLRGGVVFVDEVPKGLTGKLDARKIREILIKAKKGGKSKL
compound,measurement,setting,value
COc1ccc(-n2cc(-c3ccc(Cl)cc3)nc2S)cc1,IC50,Beta-galactosidase,> 80 µM (inactive)
COc1cc(/C=C(\C#N)C(N)=O)ccc1OS(=O)(=O)c1ccc(C)cc1,IC50,Beta-galactosidase,> 80 µM (inactive)
Cc1ccc(C)c(N2CN(CCC3=CCCCC3)CN=C2S)c1,IC50,cells [1],> 29.9 µM (inactive)
same,EC50,[2],4.03 µM (active)
same,IC50,[3],7.73 µM (active)
same,EC50,cells [4],> 29.9 µM (inactive)
Cc1cc2oc3ccc(NCCCn4ccnc4)cc3c(=O)c2cc1C,EC50,[5],24.7 µM (active)
same,EC50,[6],1.82 µM (active)
same,CC50,[7],12.4 µM (active)
same,CC50,[8],26.9 µM (active)
same,CC50,[9],14.6 µM (active)
same,IC50,cells [10],27.9 µM (active)
same,IC50,Albumin,> 94.1 µM (inactive)
Cc1cc2c(cc1S(=O)(=O)CCC(=O)NCCc1ccccc1)OCC(=O)N2,IC50,cells [1],> 29.9 µM (inactive)
same,EC50,[2],3.59 µM (active)
same,IC50,[3],5.78 µM (active)
same,EC50,cells [4],> 29.9 µM (inactive)
c1ccc(-c2nc(-c3ccccn3)no2)cc1,EC50,[11],0.35 µM (active)
same,EC50,HT-1080,> 50 µM (not active)
same,AC50,HEK293,1.68 µM (active)
same,AC50,[12],6.2 µM (active)
same,AC50,[13],9.19 µM (active)
same,AC50,[14],2.65 µM (active)
same,AC50,[15],2.47 µM (active)
same,AC50,[16],7.31 µM (active)
Cn1c(CCCOc2ccc(Cl)cc2Cl)nnc1SCC(=O)Nc1cccc(F)c1,EC50,[17],181 µM (active)
same,IC50,[18],119 µM (inactive)
same,IC50,[19],28.3 µM (inactive)
same,IC50,[20],52.2 µM (inactive)
O=C(CCCCn1c(=O)[nH]c2ccccc2c1=O)N1CCN(c2cccc(C(F)(F)F)c2)CC1,AC50,[21],11.1 µM (active)
same,AC50,[22],3.8 µM (active)
same,AC50,[23],16 µM (active)
same,AC50,[24],8.93 µM (active)
O=[N+]([O-])c1ccc(/C=[N+](\[O-])[C@@H]2CCCC[C@@H]2/[N+]([O-])=C/c2ccc([N+](=O)[O-])o2)o1,EC50,[17],8.46 µM (active)
same,CC50,Vero,14.8 µM (active)
same,AC50,Caspase-6,41.1 µM (active)
CCC(=O)Nc1cccc(-c2ccc(N3CCC(C)CC3)nn2)c1,CC50,[25],26.9 µM (active)
same,AC50,[12],> 52 µM (inactive)
same,AC50,[13],> 52 µM (inactive)
same,AC50,[14],6.78 µM (active)
same,AC50,[15],10.3 µM (active)
same,AC50,[16],35.7 µM (active)
COc1ccc(-n2nnnc2C(c2ccccc2OC(F)(F)F)N2CCN(C/C=C/c3ccccc3)CC2)cc1 (configuration not stated),IC50,Beta-galactosidase,> 80 µM (inactive)
CC(CNC(=O)[C@H]1O[C@@H](n2cnc3c(=O)[nH]c(N)nc32)[C@H](O)[C@@H]1O)c1ccccc1 (some centres not stated),IC50,cells [1],> 29.9 µM (inactive)
same,EC50,[2],1.54 µM (active)
same,IC50,[3],3.77 µM (active)
same,EC50,cells [4],> 29.9 µM (inactive)
CO[C@@H]1CN(C)C(=O)c2ccc(NC(C)=O)cc2OC[C@@H](C)N(Cc2ccccc2F)C[C@H]1C,AbsAC35,[26],167.32 µM
O=C(C[C@@H]1CC[C@@H]2[C@H](COC[C@@H](O)CN2Cc2ccc(Oc3ccccc3)cc2)O1)N1CCc2ccccc2C1,AbsAC35,[26],79.64 µM
N#C[C@@H]1[C@H](c2ccc(C#Cc3ccccc3F)cc2)[C@@H](CO)N1C(=O)c1cccnc1,AbsAC35,[26],93.82 µM
Cc1cnccc1NC(=O)c1ccc2ncsc2c1,CC50,[27],> 300 µM (inactive)
Cc1cc(NC(=O)c2ccc3nc(NC(=O)OC(C)(C)C)sc3c2)ccn1,CC50,[27],96.8 µM (active)
O=C(Nc1ccncc1F)c1ccc2ncsc2c1,CC50,[27],> 300 µM (inactive)
CCOC(=O)[C@H](Cc1c[nH]c2ccccc12)NC(=O)CN=[N+]=[N-],AC50,Caspase-6,6.78 µM (active)
Cc1cc(C(=O)N/N=C/c2cc(Br)cc([N+](=O)[O-])c2O)c2ccccc2n1,EC50,[28],1.36 µM (active)
same,EC50,Streptococcus,1.5 µM (active)
same,IC50,Albumin,> 94.1 µM (inactive)
